In patent US9365588B2, “Benzoxazines as modulators of ion channels” (Vertex Pharmaceuticals Incorporated, priority 2011, dated 2016):

Molecular target: human NaV 1.7 (Homo sapiens, UniProt Q15858)
Assay: E-VIPR optical membrane potential assay with electrical stimulation
Type: cell-based
Conditions: sodium channel inhibition; read-out: Binned Activity Data (IC50)
Text: Assays for Detecting and Measuring NaV Inhibition Properties of Compound E-VIPR Optical Membrane Potential Assay Method with Electrical Stimulation
Sodium channels are voltage-dependent proteins that can be activated by inducing membrane voltage changes by applying electric fields. The electrical stimulation instrument and methods of use are described in Ion Channel Assay Methods PCT/US01/21652, herein incorporated by reference and are referred to as E-VIPR. The instrument comprises a microtiter plate handler, an optical system for exciting the coumarin dye while simultaneously recording the coumarin and oxonol emissions, a waveform generator, a current- or voltage-controlled amplifier, and a device for inserting electrodes in well. Under integrated computer control, this instrument passes user-programmed electrical stimulus protocols to cells within the wells of the microtiter plate.
24 hours before the assay on E-VIPR, HEK cells expressing human NaV subtype, like NaV 1.7, are seeded in 384-well poly-lysine coated plates at 15,000-20,000 cells per well. Other subtypes are performed in an analogous mode in a cell line expressing the NaV of interest. HEK cells are grown in media (exact composition is specific to each cell type and NaV subtype) supplemented with 10% FBS (Fetal Bovine Serum, qualified; GibcoBRL #16140-071) and 1% Pen-Strep (Penicillin-Streptomycin; GibcoBRL #15140-122). Cells are grown in vented cap flasks, in 90% humidity and 10% CO2, to 100% confluence. They are usually split by trypsinization 1:10 or 1:20, depending on scheduling needs, and grown for 2-3 days before the next split.
Bath1 buffer. Glucose 10 mM (1.8 g/L), Magnesium Chloride (Anhydrous), 1 mM (0.095 g/L), Calcium Chloride, 2 mM (0.222 g/L), HEPES 10 mM (2.38 g/L), Potassium Chloride, 4.5 mM (0.335 g/L), Sodium Chloride 160 mM (9.35 g/L).
Hexyl Dye Solution: Bath1 Buffer+0.5% β-cyclodextrin (make this prior to use, Sigma #C4767), 8 μM CC2-DMPE+2.5 μM DiSBAC6(3). To make the solution Add volume of 10% Pluronic F127 stock equal to volumes of CC2-DMPE+DiSBAC6(3). The order of preparation is first mix Pluronic and CC2-DMPE, then add DiSBAC6(3) while vortexing, then add Bath1+β-Cyclodextrin.
1) Pre-spot compounds (in neat DMSO) into compound plates. Vehicle control (neat DMSO), the positive control (20 mM DMSO stock tetracaine, 125 μM final in assay) and test compounds are added to each well at 160× desired final concentration in neat DMSO. Final compound plate volume will be 80 μL (80-fold intermediate dilution from 1 μL DMSO spot; 160-fold final dilution after transfer to cell plate). Final DMSO concentration for all wells in assay is 0.625%.
2) Prepare Hexyl Dye Solution.
3) Prepare cell plates. On the day of the assay, medium is aspirated and cells are washed three times with 100 μL of Bath1 Solution, maintaining 25 μL residual volume in each well.
4) Dispense 25 μL per well of Hexyl Dye Solution into cell plates. Incubate for 20-35 minutes at room temp or ambient conditions.
5) Dispense 80 μL per well of Bath1 into compound plates. Acid Yellow-17 (1 mM) is added and Potassium Chloride can be altered from 4.5 to 20 mM depending on the NaV subtype and assay sensitivity.
6) Wash cell plates three times with 100 μL per well of Bath1, leaving 25 μL of residual volume. Then transfer 25 uL per well from Compound Plates to Cell Plates. Incubate for 20-35 minutes at room temp/ambient condition
7) Read Plate on E-VIPR. Use the current-controlled amplifier to deliver stimulation wave pulses for typically 9 seconds and a scan rate of 400 Hz. A pre-stimulus recording is performed for 0.5 seconds to obtain the un-stimulated intensities baseline. The stimulatory waveform is applied for 9 seconds followed by 0.5 seconds of post-stimulation recording to examine the relaxation to the resting state. […]

human NaV 1.7, sequence (Q15858 whole entry): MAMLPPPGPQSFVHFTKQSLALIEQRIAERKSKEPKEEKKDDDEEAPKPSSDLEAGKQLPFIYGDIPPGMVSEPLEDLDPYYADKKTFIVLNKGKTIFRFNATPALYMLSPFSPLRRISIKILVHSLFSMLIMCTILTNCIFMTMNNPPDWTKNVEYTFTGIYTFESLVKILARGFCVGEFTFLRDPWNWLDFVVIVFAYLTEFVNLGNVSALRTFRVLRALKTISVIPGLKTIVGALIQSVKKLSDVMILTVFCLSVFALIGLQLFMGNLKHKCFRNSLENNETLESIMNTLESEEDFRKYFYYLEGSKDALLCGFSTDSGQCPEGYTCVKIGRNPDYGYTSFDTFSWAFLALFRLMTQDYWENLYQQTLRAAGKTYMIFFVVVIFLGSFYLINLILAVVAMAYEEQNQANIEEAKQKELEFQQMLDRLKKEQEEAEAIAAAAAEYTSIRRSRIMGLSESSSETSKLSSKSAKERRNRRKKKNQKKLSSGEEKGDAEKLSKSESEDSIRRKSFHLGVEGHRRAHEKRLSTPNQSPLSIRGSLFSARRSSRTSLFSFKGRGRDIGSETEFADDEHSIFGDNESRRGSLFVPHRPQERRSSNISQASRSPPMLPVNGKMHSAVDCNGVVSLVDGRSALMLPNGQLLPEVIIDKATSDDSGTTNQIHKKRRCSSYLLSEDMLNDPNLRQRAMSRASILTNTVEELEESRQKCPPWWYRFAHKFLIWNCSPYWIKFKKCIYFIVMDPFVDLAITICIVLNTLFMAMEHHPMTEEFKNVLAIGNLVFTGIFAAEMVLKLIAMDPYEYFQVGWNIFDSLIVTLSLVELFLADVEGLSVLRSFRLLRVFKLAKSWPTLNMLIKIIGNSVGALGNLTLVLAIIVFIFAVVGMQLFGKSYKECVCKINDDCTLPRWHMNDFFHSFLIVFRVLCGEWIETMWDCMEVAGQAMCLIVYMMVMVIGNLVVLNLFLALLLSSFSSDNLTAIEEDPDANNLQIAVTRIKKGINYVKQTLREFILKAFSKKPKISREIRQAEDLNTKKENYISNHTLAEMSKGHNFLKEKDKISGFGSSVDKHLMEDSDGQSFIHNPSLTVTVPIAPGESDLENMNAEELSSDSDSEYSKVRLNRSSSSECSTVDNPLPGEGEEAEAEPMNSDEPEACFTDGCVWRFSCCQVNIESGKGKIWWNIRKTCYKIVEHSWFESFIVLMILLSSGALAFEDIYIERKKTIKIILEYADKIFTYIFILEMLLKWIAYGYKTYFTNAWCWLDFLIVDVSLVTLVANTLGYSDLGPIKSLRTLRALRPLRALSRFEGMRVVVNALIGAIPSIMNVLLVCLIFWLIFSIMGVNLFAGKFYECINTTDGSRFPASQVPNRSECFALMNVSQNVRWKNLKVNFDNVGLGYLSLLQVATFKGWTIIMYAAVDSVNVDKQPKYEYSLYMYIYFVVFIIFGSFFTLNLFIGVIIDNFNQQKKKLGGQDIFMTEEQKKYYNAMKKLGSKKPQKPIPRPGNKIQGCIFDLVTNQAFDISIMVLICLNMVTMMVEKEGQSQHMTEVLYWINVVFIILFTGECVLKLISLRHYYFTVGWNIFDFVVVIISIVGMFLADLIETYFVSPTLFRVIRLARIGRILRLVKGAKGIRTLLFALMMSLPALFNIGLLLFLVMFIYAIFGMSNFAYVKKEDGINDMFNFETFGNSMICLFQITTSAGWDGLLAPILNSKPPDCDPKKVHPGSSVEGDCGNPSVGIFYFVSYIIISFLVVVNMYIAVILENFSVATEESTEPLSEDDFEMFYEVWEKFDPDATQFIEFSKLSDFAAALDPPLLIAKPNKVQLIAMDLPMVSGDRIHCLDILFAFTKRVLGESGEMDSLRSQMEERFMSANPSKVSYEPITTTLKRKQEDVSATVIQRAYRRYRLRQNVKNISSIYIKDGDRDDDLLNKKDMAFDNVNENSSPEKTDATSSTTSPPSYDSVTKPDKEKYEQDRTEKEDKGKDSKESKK

| Structure (SMILES) | IC50 |
| --- | --- |
| COc1c(CO)cccc1C(=O)N1CCC2(CC1)Oc1ccccc1-n1c(C#N)ccc12 [Compound 3] | ≤ 2000 nM |
| CC(C)C(O)c1ccc(C(=O)N2CCC3(CC2)Oc2ccccc2-c2nn(C)cc23)cc1 (centres unmarked) [Compound 4] | ≤ 2000 nM |
| Cc1cc(C(=O)N2CCC3(CC2)Oc2cccc(C)c2-n2cccc23)ccc1OC(C)C [Compound 7] | ≤ 2000 nM |
| CC(C)CS(=O)(=O)c1ccc(C(=O)N2CCC3(CC2)Oc2ccccc2-n2c(C(F)(F)F)ccc23)cc1 [Compound 11] | ≤ 2000 nM |
| CCOc1ccc(C(=O)N2CCC3(CC2)Oc2ccccc2-c2c3cnn2C)c(OCC)c1C [Compound 13] | ≤ 2000 nM |
| COc1ccc2[nH]cc(C(=O)N3CCC4(CC3)Oc3ccccc3-c3c4cnn3C)c2c1 [Compound 14] | ≤ 2000 nM |
| COc1ccc2c(c1)-c1c(cnn1C)C1(CCN(C(=O)c3ccccc3OC)CC1)O2 [Compound 16] | ≤ 2000 nM |
| N#Cc1ccc2n1-c1ccccc1OC21CCN(C(=O)c2ccc(S(=O)(=O)NCCO)cc2)CC1 [Compound 17] | 2000 to 5000 nM |
| O=C(c1ccccc1OC(F)F)N1CCC2(CC1)Oc1cc(Cl)ccc1-n1cccc12 [Compound 21] | ≤ 2000 nM |
| Cc1cc(C)c(C(=O)N2CCC3(CC2)Oc2cc(Cl)ccc2-n2cccc23)c(=O)[nH]1 [Compound 22] | 2000 to 5000 nM |
| Cc1ccc(C(=O)N2CCC3(CC2)Oc2ccccc2-n2cccc23)cc1Cl [Compound 27] | ≤ 2000 nM |
| COc1cc(Cl)cc(C(=O)N2CCC3(CC2)Oc2cc(Cl)ccc2-n2cccc23)c1 [Compound 29] | ≤ 2000 nM |
| COC[C@@H](C)Oc1ccc(C(=O)N2CCC3(CC2)Oc2cc(Cl)ccc2-n2cccc23)cc1OC [Compound 31] | ≤ 2000 nM |
| Cc1cc(C(=O)N2C3CCC2CC2(C3)Oc3ccccc3-n3cccc32)ccc1OC(C)C (centres unmarked) [Compound 32] | ≤ 2000 nM |
| CC(C)Oc1ccc(C(=O)N2CCC3(CC2)Oc2ccccc2-n2c(C(F)(F)F)ccc23)nc1 [Compound 36] | ≤ 2000 nM |
| CC(C)c1ccc(C(=O)N2CCC3(CC2)Oc2cc(Cl)ccc2-n2cccc23)c(=O)[nH]1 [Compound 39] | ≤ 2000 nM |
| CC(C)Oc1ccc(C(=O)N2CCC3(CC2)Oc2ccccc2-n2c(C#N)ccc23)cc1F [Compound 42] | ≤ 2000 nM |
| COc1cc(C(=O)N2CCC3(CC2)Oc2cc(Cl)ccc2-n2cccc23)ccc1C1(OC)COC1 [Compound 45] | ≤ 2000 nM |
| COc1cc(C(=O)N2CCC3(CC2)Oc2ccccc2-n2c([S+](C)[O-])ccc23)ccc1OC(C)(C)C (centres unmarked) [Compound 46] | > 5000 nM |
| COc1cc(C(=O)N2CCC3(CC2)Oc2ccccc2-c2c3cnn2C)ccc1OCC(C)C [Compound 47] | ≤ 2000 nM |
| COc1cc(C(=O)N2CCC3(CC2)Oc2ccccc2-n2cccc23)ccc1OC[C@H](C)OC [Compound 48] | ≤ 2000 nM |
| Cc1cc(C(=O)N2CCC3(CC2)Oc2cc(F)ccc2-n2cccc23)ccc1C(C)(C)O [Compound 52] | ≤ 2000 nM |
| CC1Oc2c(C(=O)N3CCC4(CC3)Oc3ccccc3-c3c4cnn3C)cccc2C1C (centres unmarked) [Compound 56] | ≤ 2000 nM |
| O=C(c1cc(Cl)cc(C(F)(F)F)c1)N1CCC2(CC1)Oc1cc(Cl)ccc1-n1cccc12 [Compound 57] | ≤ 2000 nM |
| COCCOc1ccc(C(=O)N2CCC3(CC2)Oc2ccccc2-n2cccc23)cc1C#N [Compound 62] | ≤ 2000 nM |

The remaining lines, values ahead:

| IC50 | Structure (SMILES) |
| --- | --- |
| > 5000 nM | N#Cc1ccc2n1-c1ccccc1OC21CCN(C(=O)c2ccc(OC(F)F)cc2)CC1 [Compound 2] |
| ≤ 2000 nM | Cc1cc(C(=O)N2CCC3(CC2)Oc2ccccc2-c2c3cnn2C)ccc1OC(C)C [Compound 5] |
| 2000 to 5000 nM | Nc1nc2ccc(C(=O)N3CCC4(CC3)Oc3ccccc3-n3c(C(F)(F)F)ccc34)cc2s1 [Compound 8] |
| ≤ 2000 nM | O=C(c1ccc(C2(O)COC2)cc1)N1CCC2(CC1)Oc1ccccc1-n1c(C(F)(F)F)ccc12 [Compound 9] |
| 2000 to 5000 nM | CC(C)(C(=O)O)S(=O)(=O)c1ccc(C(=O)N2CCC3(CC2)Oc2ccccc2-n2c(C(F)(F)F)ccc23)cc1 [Compound 12] |
| > 5000 nM | O=C(c1ccc2ncsc2c1)N1CCC2(CC1)Oc1ccccc1-n1c(C(F)(F)F)ccc12 [Compound 15] |
| ≤ 2000 nM | COc1c(CO)cccc1C(=O)N1CCC2(CC1)Oc1ccccc1-n1c(C(F)(F)F)ccc12 [Compound 23] |
| ≤ 2000 nM | COc1c(F)cccc1C(=O)N1CCC2(CC1)Oc1ccccc1-n1c(C#N)ccc12 [Compound 24] |
| ≤ 2000 nM | Cn1ncc2c1-c1ccccc1OC21CCN(C(=O)c2ccc(OCCOC(F)(F)F)c(C#N)c2)CC1 [Compound 26] |
| 2000 to 5000 nM | Cn1ncc2c1-c1ccccc1OC21CCN(C(=O)c2ccc(OC(C)(C)C)cc2)CC1 [Compound 28] |
| ≤ 2000 nM | COc1cc(C(=O)N2CCC3(CC2)Oc2cc(F)ccc2-n2cccc23)ccc1OC[C@@H](C)OC [Compound 30] |
| ≤ 2000 nM | COc1cc(C(=O)N2CCC3(CC2)Oc2cc(F)ccc2-n2cccc23)ccc1O[C@@H]1CCC[C@H]1O [Compound 34] |
| ≤ 2000 nM | O=C(c1ccc(OC2COC2)c(C(F)(F)F)c1)N1CCC2(CC1)Oc1ccccc1-n1cccc12 [Compound 37] |
| ≤ 2000 nM | Cc1cc(C(=O)N2CCC3(CC2)Oc2cc(F)ccc2-n2cccc23)ccc1OC(C)C [Compound 38] |
| 2000 to 5000 nM | CC(C)Oc1ccc(C(=O)N2CCC3(CC2)Oc2ccccc2-c2c3cnn2C)c(C#N)c1 [Compound 40] |
| ≤ 2000 nM | COc1ccc(C(=O)N2CCC3(CC2)Oc2ccccc2-n2cccc23)cc1S(C)(=O)=O [Compound 41] |

| IC50 | Structure (SMILES) |
| --- | --- |
| 2000 to 5000 nM | Cn1ncc2c1-c1ccccc1OC21CCN(C(=O)c2cccc3ncn(C)c23)CC1 [Compound 43] |
| ≤ 2000 nM | Cc1c(F)cccc1C(=O)N1CCC2(CC1)Oc1ccccc1-c1c2cnn1C [Compound 44] |
| > 5000 nM | CC(CO)NS(=O)(=O)c1ccc(C(=O)N2CCC3(CC2)Oc2ccccc2-n2c(C#N)ccc23)cc1 (centres unmarked) [Compound 49] |
| ≤ 2000 nM | CC(C)C(O)c1ccc(C(=O)N2CCC3(CC2)Oc2ccccc2-n2c(C(F)(F)F)ccc23)cc1 (centres unmarked) [Compound 50] |
| ≤ 2000 nM | CCn1ncc2c1-c1ccccc1OC21CCN(C(=O)c2ccc(OCCOC)c(OC)c2)CC1 [Compound 51] |
| ≤ 2000 nM | Cc1cc(S(=O)(=O)C(C)C)ccc1C(=O)N1CCC2(CC1)Oc1ccccc1-c1c2cnn1C [Compound 53] |
| ≤ 2000 nM | Cc1cc(C(=O)N2CCC3(CC2)Oc2ccccc2-n2c(C#N)ccc23)ccc1[C@](C)(O)CO [Compound 54] |
| ≤ 2000 nM | CCc1ccc(C(=O)N2CCC3(CC2)Oc2cc(Cl)ccc2-n2cccc23)cc1C [Compound 55] |
| ≤ 2000 nM | COc1cc(C(=O)N2CCC3(CC2)Oc2ccccc2-n2cccc23)ccc1C(C)(C)O [Compound 59] |
| ≤ 2000 nM | COc1cc(F)cc(C(=O)N2CCC3(CC2)Oc2cc(Cl)ccc2-n2cccc23)c1 [Compound 60] |
| ≤ 2000 nM | COc1cc(C(=O)N2CCC3(CC2)Oc2cc(Cl)ccc2-n2cccc23)ccc1F [Compound 63] |
| ≤ 2000 nM | CC(C)C(O)c1ccc(C(=O)N2CCC3(CC2)Oc2ccccc2-n2c(C#N)ccc23)cc1 (centres unmarked) [Compound 65] |
| ≤ 2000 nM | CC(C)Oc1ccc(C(=O)N2CCC3(CC2)Oc2ccccc2-c2c3cnn2C)cc1CO [Compound 66] |
| ≤ 2000 nM | Cc1cc(C(=O)N2CCC3(CC2)Oc2ccccc2-c2c3cnn2C)ccc1S(=O)(=O)C(C)(C)C [Compound 67] |
| ≤ 2000 nM | CCCOc1ccc(C(=O)N2CCC3(CC2)Oc2ccccc2-n2cccc23)cc1C(F)(F)F [Compound 69] |
